According to US20020025940A1, “Methods and compositions for sensitive and rapid, functional identification of genomic polynucleotides and use for cellular assays in drug discovery” (Aurora Biosciences Corporation, priority 1997, published 2002):

Tests used:
Format in all cases: cell-based, human
[1] = test system: BLEC Jurkat clones; experiment: Specificity of activated BLEC Jurkat clones, relative beta-lactamase activity; conditions: PMA 8 nM, Thaps 1 microM, CsA 100 nM, PHA 10 microgram/ml
Excerpt: (§1) Isolated clones from PHA-induced (Example 6) and PHA-repressed (Example 7) procedures described above were characterized to determine the specificity of their modulation and time required for induction or repression. Clones were stimulated with multiple activators or inhibitors over a one to twenty-four hour time interval.
(§2) In this study, PMA, which is a PKC activator, Thapsigargin which increases intracellular calcium, PHA which activates the T-cell receptor pathway, and cyclosporin A which is a clinically approved immunosuppressant that inhibits the Ca^2+ dependent phosphates calcineurin were investigated for their ability to modulate beta-lactamase expression in PHA induced and repressed BLEC clones.

[2] = test system: clone C2 (3×NFAT response element linked to beta-lactamase, M1 muscurinic receptor); experiment: Relative beta-lactamase activity of control clone C2; conditions: PMA 8 nM, Thaps 1 microM, CsA 100 nM, PHA 10 microgram/ml
Excerpt: as §1, §2

[3] = test system: induced BLEC Jurkat clones; experiment: Characterization of induced BLEC Jurkat clones, change in 460/530 ratio; conditions: PHA 10 microgram/ml, Thaps 1 microM, PMA 8 nM, Anti-CD3 2 microgram/ml
Excerpt: These clones represent cells in which the trapping construct had integrated into a gene up regulated by PHA (T-cell) activation. Thus, these cells report the transcriptional activation of a gene upon cellular activation. Individual clones were identified and isolated by FACS using CCF2/AM to detect beta-lactamase activity. This clone isolation method, the induced sorting paradigm, used three sequential and independent stimulation and sorting protocols. […] These control cells were all green.
These isolated clones were expanded and tested for PHA inducibility by microscopic inspection with and without PHA stimulation in the presence of CCF2/AM. A total of fifty-five PHA inducible clones were identified using this procedure. The PHA inducibility for these clones ranged from a 1.5 to 40 fold change in the 460/530 ratio as compared to unstimulated control cells. Genomic Southern analysis using a DNA probe encoding beta-lactamase established that these clones represented 34 independent stable vector integration events. A list of clones obtained by the methods of the present invention and their characteristics is provided below in Table 6 and Table 7.
In addition to PHA inducible clones, Phobol 12-myristate 13-acetate (PMA) (Calbiochem), Thapsigargin (Thaps) (Calbiochem), and PMA+Thaps inducible clones were isolated using the general procedure set forth above using the indicated inducer rather than PHA. PMA is a specific activator of PKC (protein kinase C) and Thaps is a specific activator of intracellular calcium ion release (Thaps). These clones were isolated using three rounds of FACS using the general procedures described for the PHA inducible clones in Example 5. In such instances, other stimulants were substituted for PHA. PMA was provided at 8 nM, Thaps was provided at 1 microM. When these two stimulants were combined, their concentration was not changed. […] By using varied selection conditions, it is possible to isolate functionally distinct clones downstream of the desired signaling target.
Table 7 and Table 8 provide data similar to that provided in Table 5 for all of the clones obtained by the methods of Examples 5 to 7.

[4] = test system: J389PT14/pcDNA3; experiment: Beta-lactamase expression in control cell line J389PTI4/pcDNA3; conditions: 30 μM Carbachol, 10 nM PHA, 6 hours, unstimulated = 1
Procedure: For example, a calcium-sensitive clone was transfected with a Gq-type GPCR by electroporation. Cells from clone J389PT14 were transfected by electroporation with a plasmid (pcDNA3 (Invitrogen) or pcDNA3-M1 (pcDNA3 that can operably express M1 receptor) to make cell lines J389PTI4/pcDNA3 and J389PTI4/pcDNA3-Ml). […] Thus, the J389PTI4/pcDNA3 cell is a control cell. […] These cells were contacted with CCF-2 dye for another 90 minutes. The 460/530 ratio changes were measured in a Cytoflour (Series 4000 Model) (Perceptive Biosystems) fluorescence plate reader and correspond to reporter gene expression.

phytohemaglutinin [PHA]
Relative Beta-Lactamase Activity of the Clone by the Indicated Stimulus After 24 hours (% of maximum activated stimuli) ([1]; clone J32-6D4): 80% | Relative Beta-Lactamase Activity of the Clone by the Indicated Stimulus After 24 hours (% of maximum activated stimuli) ([1]; clone J83 97-PPTR2 (repressed paradigm)): 67% | Relative Beta-Lactamase Activity of the Clone by the Indicated Stimulus After 24 hours (% of maximum activated stimuli) ([1]; clone J83-PI9): 60% | Relative Beta-Lactamase Activity of the Clone by the Indicated Stimulus After 24 hours (% of maximum activated stimuli) ([1]; clone J83-PTI8): 60% | Relative Beta-Lactamase Activity of the Clone by the Indicated Stimulus After 24 hours (% of maximum activated stimuli) ([1]; clone J389-PTI4): 85% | Relative Beta-Lactamase Activity of the Clone by the Indicated Stimulus After 24 hours (% of maximum activated stimuli) [2]: 30% | Change in 460/530 ratio in the indicated clone by the following activator ([3]; clone J83PI1): 3-4 | Change in 460/530 ratio in the indicated clone by the following activator ([3]; clone J83PI2): 8 | Change in 460/530 ratio in the indicated clone by the following activator ([3]; clone J83PI3): 5-6 | Change in 460/530 ratio in the indicated clone by the following activator ([3]; clone J83PI4): 34 | Change in 460/530 ratio in the indicated clone by the following activator ([3]; clone J83PI6): 6-7 | Change in 460/530 ratio in the indicated clone by the following activator ([3]; clone J83PI7): 2 | Change in 460/530 ratio in the indicated clone by the following activator ([3]; clone J83PI8): 4-5 | Change in 460/530 ratio in the indicated clone by the following activator ([3]; clone J83PI9): 6 | Change in 460/530 ratio in the indicated clone by the following activator ([3]; clone J83PI13): 2-3 | Change in 460/530 ratio in the indicated clone by the following activator ([3]; clone J83PI14): 2 | Change in 460/530 ratio in the indicated clone by the following activator ([3]; clone J83PI15): 3-4 | Change in 460/530 ratio in the indicated clone by the following activator ([3]; clone J83PI16): 3-4 | Change in 460/530 ratio in the indicated clone by the following activator ([3]; clone J83PI18): 5-6 | Change in 460/530 ratio in the indicated clone by the following activator ([3]; clone J83PI19): 5-6 | Change in 460/530 ratio in the indicated clone by the following activator ([3]; clone J97PI1): 3-4 | Change in 460/530 ratio in the indicated clone by the following activator ([3]; clone J97PI2): 2-3 | Change in 460/530 ratio in the indicated clone by the following activator ([3]; clone J97PI3): 1-2 | Change in 460/530 ratio in the indicated clone by the following activator ([3]; clone J97PI4): 1-2 | Change in 460/530 ratio in the indicated clone by the following activator ([3]; clone J97PI6): 3-4 | Change in 460/530 ratio in the indicated clone by the following activator ([3]; clone J97PI7): 3-4 | Change in 460/530 ratio in the indicated clone by the following activator ([3]; clone J97PI8): 2.5-3 | Change in 460/530 ratio in the indicated clone by the following activator ([3]; clone J97PI9): 2-3 | Change in 460/530 ratio in the indicated clone by the following activator ([3]; clone J97PI10): 3-4 | Change in 460/530 ratio in the indicated clone by the following activator ([3]; clone J97PI11): 3-4 | Change in 460/530 ratio in the indicated clone by the following activator ([3]; clone J97PI12): 3-4 | Change in 460/530 ratio in the indicated clone by the following activator ([3]; clone J97PI13): 2-3 | Change in 460/530 ratio in the indicated clone by the following activator ([3]; clone J97PI14): 4-5 | Change in 460/530 ratio in the indicated clone by the following activator ([3]; clone J97PI15): 1-2 | Change in 460/530 ratio in the indicated clone by the following activator ([3]; clone J97PI17): 4-5 | Change in 460/530 ratio in the indicated clone by the following activator ([3]; clone J97PI18): 1-2 | Change in 460/530 ratio in the indicated clone by the following activator ([3]; clone J97PI19): 2-3 | Change in 460/530 ratio in the indicated clone by the following activator ([3]; clone J97PI20): 1-2 | Change in 460/530 ratio in the indicated clone by the following activator ([3]; clone J97PI21): 2-3 | Change in 460/530 ratio in the indicated clone by the following activator ([3]; clone J97PI22): 5-6 | Change in 460/530 ratio in the indicated clone by the following activator ([3]; clone J97PI23): 4-5 | Change in 460/530 ratio in the indicated clone by the following activator ([3]; clone J97PI24): 3-4 | Change in 460/530 ratio in the indicated clone by the following activator ([3]; clone J97PI116): 2-3 | Change in 460/530 ratio in the indicated clone by the following activator ([3]; clone J325B5): 7 | Change in 460/530 ratio in the indicated clone by the following activator ([3]; clone J325B11): 9 | Change in 460/530 ratio in the indicated clone by the following activator ([3]; clone J325E1): 8 | Change in 460/530 ratio in the indicated clone by the following activator ([3]; clone J325E3): 7 | Change in 460/530 ratio in the indicated clone by the following activator ([3]; clone J325E6): 11 | Change in 460/530 ratio in the indicated clone by the following activator ([3]; clone J325G4): 3-4 | Change in 460/530 ratio in the indicated clone by the following activator ([3]; clone J326C9): 4-5 | Change in 460/530 ratio in the indicated clone by the following activator ([3]; clone J326D4): 10 | Change in 460/530 ratio in the indicated clone by the following activator ([3]; clone J326D7): 10 | Change in 460/530 ratio in the indicated clone by the following activator ([3]; clone J326F7): 10 | Change in 460/530 ratio in the indicated clone by the following activator ([3]; clone J326H4): 10 | Change in 460/530 ratio in the indicated clone by the following activator ([3]; clone J389PM2): 4-5 | Change in 460/530 ratio in the indicated clone by the following activator ([3]; clone J389PM3): 3 | Change in 460/530 ratio in the indicated clone by the following activator ([3]; clone J389PM5): 4-5 | Change in 460/530 ratio in the indicated clone by the following activator ([3]; clone J389PM7): 1-2 | Change in 460/530 ratio in the indicated clone by the following activator ([3]; clone J389PM8): 2-3 | Change in 460/530 ratio in the indicated clone by the following activator ([3]; clone J389PT4): 15 | Change in 460/530 ratio in the indicated clone by the following activator ([3]; clone J389PTt): 5-6 | Change in 460/530 ratio in the indicated clone by the following activator ([3]; clone J389TI1): 1-2 | Change in 460/530 ratio in the indicated clone by the following activator ([3]; clone J389TI4): 0 | Relative expression of beta-lactamase in cells exposed to the indicated stimuli [4]: 12
